A word on the IC50: it is the concentration at which inhibition is half-maximal. A low value points to higher potency.

The structures appear in SMILES notation.

For this assay, the target named is T1, CCR2 receptor (Homo sapiens, UniProt P41597).
T1 construct: host or cells: THP-1 human monocytic cell line
T1 sequence (P41597 1-360 isoform P41597-2): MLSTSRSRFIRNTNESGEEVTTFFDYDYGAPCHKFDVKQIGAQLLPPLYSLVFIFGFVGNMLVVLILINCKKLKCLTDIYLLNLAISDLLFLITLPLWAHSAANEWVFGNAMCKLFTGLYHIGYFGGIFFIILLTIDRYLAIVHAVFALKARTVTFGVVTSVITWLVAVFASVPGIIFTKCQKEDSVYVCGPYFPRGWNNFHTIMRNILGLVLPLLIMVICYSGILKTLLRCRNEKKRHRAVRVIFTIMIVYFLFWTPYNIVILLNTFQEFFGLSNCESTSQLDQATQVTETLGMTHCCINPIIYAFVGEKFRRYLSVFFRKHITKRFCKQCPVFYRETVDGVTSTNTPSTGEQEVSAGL
Nature of the assay: Inhibition of MCP-1 induced Ca-flux in human THP-1 cells. Format: cell-based. The following applies: inhibition of specific MCP-1 (10^-7 M hMCP-1) induced Ca2+ flux in human THP-1 cells; pIC50 = -log IC50 (molar). How it is done: C. Pharmacological Example Inhibition of MCP-1 Induced Ca-flux in Human THP-1 Cells
MCP-1 binding to the CCR2 receptor induces a rapid and transient intracellular release of Ca^2+ (secondary messenger) in several cell lines (Charo et al, PNAS 1994). Free Ca^2+ levels can be measured using a Ca^2+ sensitive dye. When the CCR2 receptor is blocked with a CCR2 receptor antagonist, the MCP-1 induced release of Ca^2+ is inhibited.
Human THP-1 cells (monocytic cell line, ATCC TIB-202) were cultured in RPMI 1640 medium supplemented with 10% fetal calf serum (FCS), 1% L-Glutamine, penicillin (50 U/ml) and streptomycin (50 μg/ml) (all GIBCO BRL, Gent). After centrifugation, cells were loaded for 30 minutes with the Ca^2+ sensitive fluorescent dye Fluo-3 AM (Molecular Probes, Leiden, Netherlands) (2 million cells/ml in RPMI medium containing 4 μM Fluo-3 AM, 20 mM HEPES, 0.1% Bovine Serum Albumin (BSA) and 5 mM probenecid). Excess dye was removed by 3-fold washing with buffer (5 mM HEPES, 140 mM NaCl, 1 mM MgCl2, 5 mM KCl, 10 mM glucose, 2.5 mM probenecid, 1.25 mM CaCl2, 0.1% BSA; all further incubations were done in this buffer). Cells were plated at a density of 150 000 cells/well in dark-wall 96-well plates (Costar, Cambridge, Mass.) and sedimented by centrifugation (1 minute). The cells were pre-incubated for 20 minutes with test compound. Then, 10^−7 M hMCP-1 (Bachem, Bubendorf, Switserland) was added. Changes in intracellular free Ca^2+ concentration were measured using the Fluorescent Imaging Plate Reader (FLIPR, Molecular Devices, Munchen, Germany). Fluorescence was recorded every second from 10 seconds before the addition of the MCP-1 till 2 minutes after the addition (first minute: 60 records with 1 second intervals, second minute 20 records with 3 second intervals).
The maximal fluorescence obtained during this time frame was used for further calculations.
Table 4 reports pIC50 values obtained in the above-described test for compounds of formula (I). pIC50 defines −log IC50 wherein IC50 is the molar concentration of the test compound which inhibits 50% of specific MCP-1 induced Ca^2+ flux.
In general terms: Calcium flux is commonly read through the fluorescence of an indicator in the cells.
`CCC(c1ccc(F)c(C(F)(F)F)c1)n1c(C(=O)OC)cnc1S` (centres unmarked) [Compound 1] showed an IC50 of 933 nM.

`COC(=O)c1c[nH]c(=S)n1C(c1ccc(Cl)c(Cl)c1)C1CC1` (centres unmarked) [Compound 2] had an IC50 of 2140 nM.

Molecule `CCC(c1ccc(F)c(C(F)(F)F)c1)n1c(S)nc(C(=O)OC)c1C(=O)OC` (centres unmarked) [Compound 3] showed an IC50 of 17.4 nM.

On to `COC(=O)c1[nH]c(=S)n(C(c2ccc(Cl)c(Cl)c2)C2CC2)c1C(=O)OC` (centres unmarked) [Compound 4], for which half-maximal inhibition (IC50) required 27.9 nM.

`CCC(c1ccc(Cl)c(Cl)c1)n1c(C#N)c(C(=O)OC)[nH]c1=S` (centres unmarked) [Compound 5] gave an IC50 of 39.8 nM. The IC50 values of the last two molecules are within 1.5-fold of each other.

Regarding `CCC(c1ccc(Cl)c(Cl)c1)n1c(C(=O)OC)c(C)[nH]c1=S` (centres unmarked) [Compound 6], inhibition was half-maximal at 263 nM (IC50).

Molecule `CCC(c1ccc(Cl)c(Cl)c1)n1c(C#N)cnc1S` (centres unmarked) [Compound 7] gave an IC50 of 700 nM.

The molecule `CCC(c1ccc(Cl)c(Cl)c1)n1c(C(N)=O)cnc1S` (centres unmarked) [Compound 8] showed a concentration for half-maximal inhibition (IC50) of 35 nM.

In the case of `CCC(c1ccc(F)c(F)c1)n1c(C(N)=O)cnc1S` (centres unmarked) [Compound 9], it took 465 nM to reach half-maximal inhibition (IC50).

Regarding `CCC(c1ccc(F)c(C(F)(F)F)c1)n1c(C(N)=O)cnc1S` (centres unmarked) [Compound 10], the IC50 was 204 nM.

Regarding `CCOC(=O)c1cnc(S)n1C(CC)c1ccc(F)c(C(F)(F)F)c1` (centres unmarked) [Compound 12], the IC50 was 347 nM. Compared with the last molecule, the IC50 is about 1.7-fold higher.

On to `CCC(c1ccc(Cl)c(Cl)c1)n1cc(C(=O)OC)nc1S` (centres unmarked) [Compound 14], for which the IC50 was 355 nM.

With `CCC(c1ccc(Cl)c(Cl)c1)n1c(C(=O)OC)cnc1S` (centres unmarked) [Compound 15], the IC50 was 191 nM.

For `CC[C@H](c1ccc(Cl)c(Cl)c1)n1c(C(=O)OC)cnc1S` [Compound 16], half-maximal inhibition (IC50) required 1020 nM.

Regarding `CC[C@@H](c1ccc(Cl)c(Cl)c1)n1c(C(=O)OC)cnc1S` [Compound 17], 87.1 nM corresponded to half-maximal inhibition (IC50).

In turn, `CCC(c1ccc(Cl)c(Cl)c1)n1c(S)nc(C(N)=O)c1C#N` (centres unmarked) [Compound 19] showed an IC50 of 120 nM.

As to `CCC(c1ccc(Cl)c(Cl)c1)n1c(S)nc(C(N)=O)c1C(N)=O` (centres unmarked) [Compound 20], the 50% inhibitory concentration (IC50) is 56.9 nM.

`CCC(c1ccc(F)c(F)c1)n1c(C(=O)OC)cnc1S` (centres unmarked) [Compound 21] gave a 50% inhibitory concentration (IC50) of 1020 nM.

In the case of `CCC(c1ccc(Cl)c(Cl)c1)n1c(C(=O)O)cnc1S` (centres unmarked) [Compound 23], inhibition was half-maximal at 3310 nM (IC50).

With `CCCC(c1cccc(Cl)c1)n1c(C(=O)OC)c[nH]c1=S` (centres unmarked) [Compound 24], half-maximal inhibition (IC50) was put at 891 nM. This IC50 lies about 3.7-fold lower than the previous one.

For `CCCC(c1ccc(Cl)cc1)n1c(C(=O)OC)c[nH]c1=S` (centres unmarked) [Compound 25], the IC50 was 3550 nM.

The molecule `COC(=O)c1c[nH]c(=S)n1C(C)c1ccc(Cl)cc1` (centres unmarked) [Compound 31] showed an IC50 of 3720 nM.

`COC(=O)c1cnc(S)n1C(C)c1ccc(Cl)c(Cl)c1` (centres unmarked) [Compound 32]: the IC50 was 257 nM. Compared with the last molecule, the IC50 is about 14-fold lower.

The molecule `CCC(c1ccc(Cl)c(Cl)c1)n1c(C(=O)OC(C)C)cnc1S` (centres unmarked) [Compound 33] showed a half-maximal inhibitory concentration (IC50) of 263 nM. This IC50 and that of the molecule before are within 1.5-fold of each other.

For `CCC(c1ccc(Cl)c(Cl)c1)n1c(C(=O)NC)cnc1S` (centres unmarked) [Compound 34], 219 nM corresponded to half-maximal inhibition (IC50).

Take `CCCC(c1ccc(Cl)c(Cl)c1)n1c(C(=O)OC)cnc1S` (centres unmarked) [Compound 35]: the IC50 is 138 nM.

Consider `CCC(c1ccc(F)c(F)c1)n1c(C(=O)NC)cnc1S` (centres unmarked) [Compound 36], for which the midpoint of inhibition, the IC50, lay at 2240 nM. This IC50 lies about 16-fold higher than the previous one.

Turning to `CCC(c1ccc(Cl)c(Cl)c1)n1c(S)nc(C(=O)OC)c1C(=O)OC` (centres unmarked) [Compound 37], it took 9.68 nM to reach half-maximal inhibition (IC50).

In turn, `CCC(c1ccc(F)c(F)c1)n1c(S)nc(C(=O)OC)c1C(=O)OC` (centres unmarked) [Compound 39] had an IC50 of 7.24 nM.

Molecule `CCC(c1ccc(Cl)c(Cl)c1)n1c(C(=O)O)c(C(=O)O)[nH]c1=S` (centres unmarked) [Compound 40] showed a concentration for half-maximal inhibition (IC50) of 1380 nM.

Regarding `CCC(c1ccc(C(F)(F)F)c(F)c1)n1c(C(=O)OC)cnc1S` (centres unmarked) [Compound 43], the IC50 was 2000 nM.

On to `CCCCNC(=O)c1cnc(S)n1C(CC)c1ccc(F)c(F)c1` (centres unmarked) [Compound 44], for which the IC50 was 3130 nM.

For the molecule `CCC(c1ccc(F)c(F)c1)n1c(C(=O)NCC(C)C)cnc1S` (centres unmarked) [Compound 45], the midpoint of inhibition, the IC50, lay at 2480 nM. The IC50 values of the last two molecules are within 1.5-fold of each other.

Take `COC(=O)c1[nH]c(=S)n(Cc2ccc(Cl)c(Cl)c2)c1C(=O)OC` [Compound 47]: the IC50 was 35.5 nM.

`CCC(c1ccc(C(F)(F)F)c(F)c1)n1c(S)nc(C(=O)OC)c1C(=O)OC` (centres unmarked) [Compound 48] had an IC50 of 89.1 nM.

For the molecule `CCC(c1ccc(F)c(C(F)(F)F)c1)n1c(C(=O)NC)c[nH]c1=S` (centres unmarked) [Compound 49], half-maximal inhibition (IC50) required 2290 nM.

The molecule `CCC(c1ccc(Cl)c(Cl)c1)n1cc(C(N)=O)[nH]c1=S` (centres unmarked) [Compound 51] had an IC50 of 1780 nM. This IC50 and that of the molecule before are within 1.5-fold of each other.

`CCC(c1ccc(Cl)c(Cl)c1)n1cc(C(=O)NC)[nH]c1=S` (centres unmarked) [Compound 52] had an IC50 of 8130 nM.

As for `CC(c1ccc(Cl)c(Cl)c1)n1c(C(N)=O)c[nH]c1=S` (centres unmarked) [Compound 54], the IC50 is 1100 nM.

The molecule `COC(=O)c1[nH]c(=S)n(C(C)c2ccc(Cl)c(Cl)c2)c1C(=O)OC` (centres unmarked) [Compound 55] gave an IC50 of 12.6 nM.

The molecule `COC(=O)c1[nH]c(=S)n(C(c2ccccc2)c2ccc(Cl)c(Cl)c2)c1C(=O)OC` (centres unmarked) [Compound 56] had an IC50 of 203 nM.

In turn, `CCC(c1ccc(Br)c(Br)c1)n1c(C(N)=O)c(C(N)=O)[nH]c1=S` (centres unmarked) [Compound 57] gave an IC50 of 168 nM.

Take `CCC(c1ccc(Cl)c(Cl)c1)n1c(C(N)=O)cnc1S` (centres unmarked) [Compound 59]: half-maximal inhibition (IC50) required 43.4 nM.

With `CCC(c1ccc(F)c(C(F)(F)F)c1)n1c(C(=O)OCCO)cnc1S` (centres unmarked) [Compound 61], the IC50 is 229 nM.

For the molecule `CCC(c1ccc(F)c(C(F)(F)F)c1)n1c(C(=O)OCC(=O)N(CC)CC)c[nH]c1=S` (centres unmarked) [Compound 62], the IC50 was 1020 nM.

The molecule `CCC(c1ccc(Cl)c(Cl)c1)n1cc(C(=O)OCCO)[nH]c1=S` (centres unmarked) [Compound 63] had an IC50 of 1020 nM.

The molecule `CCC(c1ccc(F)c(C(F)(F)F)c1)n1c(C(=O)O)c[nH]c1=S` (centres unmarked) [Compound 67] gave an IC50 of 2340 nM. Against the preceding molecule, the IC50 is about 2.3-fold higher.

The molecule `CCC(c1ccc(Cl)c(Cl)c1)n1c(S)nc(C(=O)O)c1C(=O)OC` (centres unmarked) [Compound 68] showed an IC50 of 841 nM.

`CCCC(c1ccc(Cl)c(Cl)c1)n1c(C(=O)NC)c(C(=O)NC)[nH]c1=S` (centres unmarked) [Compound 69] had an IC50 of 394 nM. Against the preceding molecule, the IC50 is about 2.1-fold lower.

As for `CCC(c1ccc(Cl)c(Cl)c1)n1c(C#N)c(C(=O)NC)[nH]c1=S` (centres unmarked) [Compound 70], the IC50 was 257 nM.

For the molecule `COC(=O)c1[nH]c(=S)n(C(c2ccc(Cl)c(Cl)c2)C2CCCCC2)c1C(=O)OC` (centres unmarked) [Compound 73], the IC50 was 440 nM.

`CCC(c1ccc(Br)c(Br)c1)n1c(C(=O)O)c[nH]c1=S` (centres unmarked) [Compound 74] showed an IC50 of 3390 nM. This IC50 lies about 7.7-fold higher than the previous one.

`CCOC(=O)c1c(C)[nH]c(=S)n1C(CC)c1ccc(Cl)c(Cl)c1` (centres unmarked) [Compound 75] gave an IC50 of 263 nM. Against the preceding molecule, the IC50 is about 13-fold lower.

Regarding `CCC(c1ccc(Br)c(Br)c1)n1c(C(=O)OC)cnc1S` (centres unmarked) [Compound 76], the IC50 was 257 nM. The IC50 values of the last two molecules are within 1.5-fold of each other.

`O=c1[nH][nH]c(=O)c2c1[nH]c(=S)n2C(c1ccc(Cl)c(Cl)c1)C1CC1` (centres unmarked) [Compound 77] had an IC50 of 331 nM.

Molecule `COC(=O)c1cnc(S)n1C(C)(C)c1ccc(Cl)c(Cl)c1` [Compound 80] showed an IC50 of 4790 nM.

As to `CCC(c1ccc(Cl)c(Cl)c1)n1c(C(C)=O)c[nH]c1=S` (centres unmarked) [Compound 81], half-maximal inhibition (IC50) was put at 132 nM.

In turn, `CCC(c1ccc(Cl)c(Cl)c1)n1c(S)nc(CO)c1C(=O)OC` (centres unmarked) [Compound 85] showed an IC50 of 153 nM. The IC50 values of the last two molecules are within 1.5-fold of each other.

`CCC(c1ccc(Cl)c(Cl)c1)n1c(S)nc(C(N)=O)c1C(=O)OC` (centres unmarked) [Compound 86] gave a half-inhibitory concentration (IC50) of 49.9 nM.

Source of the values: US7511068B2, “Mercaptoimidazoles as CCR2 receptor antagonists” (Janssen Pharmaceutica, N.V., priority 2003, dated 2009).
